The values that follow come from ChEMBL document CHEMBL4393657, “Tetrazole hybrids and their antifungal activities” (2019).

Common to all, as to assay type: functional
Test [1] has as its system Aspergillus niger. In words: Antifungal activity against Aspergillus niger NCCS 1196 assessed as inhibition zone at 500 ug/ml by disk diffusion method. Conditions: read-out: IZ. (In general: A growth-free zone around the sample is the usual read-out of agar diffusion tests.)
The test system of test [2] is Candida albicans. In words: Antifungal activity against Candida albicans NCCS 3471 assessed as inhibition zone at 500 ug/ml by disk diffusion method. As to conditions: read-out: IZ.
Test [3] concerns Mucor indicus. In words: Antifungal activity against Mucor indicus.
The test system of test [4] is Candida albicans. In words: Antifungal activity against Candida albicans.
In test [5] the test system is Rhizopus arrhizus. The experiment in a line: Antifungal activity against Rhizopus arrhizus.
Test [6] has as its system Aspergillus flavus. In words: Antifungal activity against Aspergillus flavus.
The test system of test [7] is Aspergillus niger. The experiment in a line: Antifungal activity against Aspergillus niger.
Test [8] deals with Aspergillus fumigatus. In words: Antifungal activity against Aspergillus fumigatus assessed as inhibition zone at 25 ug/ml by disk diffusion method. As to conditions: read-out: IZ.
The subject of test [9] is Aspergillus niger. In words: Antifungal activity against Aspergillus niger assessed as inhibition zone at 25 ug/ml by disk diffusion method. Conditions: read-out: IZ.
For test [10], the system named is Aspergillus flavus. In words: Antifungal activity against Aspergillus flavus assessed as inhibition zone at 25 ug/ml by disk diffusion method. As to conditions: read-out: IZ.
The test system of test [11] is Candida albicans. In words: Antifungal activity against Candida albicans assessed as inhibition zone at 25 ug/ml by disk diffusion method. As to conditions: read-out: IZ.
In test [12] the test system is Candida albicans. The experiment in a line: Antifungal activity against Candida albicans assessed as reduction in fungal cell growth incubated for 24 hrs by broth microdilution method. (In general: Broth dilution looks for growth in wells or tubes with falling amounts of substance.)
Test [13] has as its system Aspergillus niger. The experiment in a line: Antifungal activity against Aspergillus niger assessed as reduction in fungal cell growth incubated for 48 hrs by broth microdilution method.
The subject of test [14] is Candida albicans. The experiment in a line: Antifungal activity against Candida albicans assessed as reduction in fungal cell growth incubated for 48 hrs by broth microdilution method.
For test [15], the system named is Candida tropicalis. The experiment in a line: Antifungal activity against Candida tropicalis NCIM 3110 assessed as reduction in fungal cell growth incubated for 48 hrs by broth microdilution method. As to conditions: NCIM 3110, 48 h.
For test [16], the system named is Candida tropicalis. The experiment in a line: Potency index, ratio for MIC of fluconazole to MIC of compound for Antifungal activity against Candida tropicalis NCIM 3110 assessed as reduction in fungal cell growth incubated for 24 hrs by broth microdilution method.
Test [17] relates to Nakaseomyces glabratus. In words: Antifungal activity against Candida glabrata NCIM 3236 assessed as reduction in fungal cell growth incubated for 24 hrs by broth microdilution method. Conditions: NCIM 3236, 24 h.
Test [18] has as its system Candida albicans. The experiment in a line: Antifungal activity against Candida albicans MTCC 227 assessed as reduction in fungal cell growth incubated for 24 hrs by broth microdilution method. Conditions: MTCC 227, 24 h.
The test system of test [19] is Nakaseomyces glabratus. In words: Potency index, ratio for MIC of fluconazole to MIC of compound for antifungal activity against Candida glabrata NCIM 3236 assessed as reduction in fungal cell growth incubated for 24 hrs by broth microdilution method.
Test [20] relates to Candida albicans. The experiment in a line: Antifungal activity against Candida albicans ATCC 885653 assessed as inhibition zone at 100 ug/ml incubated for 48 to 72 hrs by agar-diffusion method. Conditions: read-out: IZ.

≈ marks a conversion by molar mass, not a printed value.

`COc1ccc(C2(C)OC(Cn3cc(-c4nn(-c5ccncc5)cc4-c4nnnn4-c4ccc(C(F)(F)F)cc4)c4cc(Cl)ccc43)=NN2C(C)=O)cc1` (centres undefined): the zone of inhibition at 500 µg/mL in test [1] and in test [2] was 11 to 20 mm in each case.
As for `COc1ccc(-n2nnnc2C(=O)CN2CCN(c3nc4c(cc3F)c(=O)c(C(=O)O)cn4C3CC3)CC2)cc1`, the MIC in [3], in [4], in test [5], in test [6] and in [7] was 6.25 to 100 µg/mL (≈ 11.4 to 182 µM) throughout.
`c1ccc(OCc2cn(Cc3ccc(-c4ccccc4-c4nnn[nH]4)cc3)nn2)cc1`: the zone of inhibition at 25 µg/mL in test [8], in test [9], in [10] and in test [11] was 11 to 18 mm throughout.
With `FC(F)(F)c1cc(-c2ccc(Br)cc2)nc2nnnn12`, the minimal inhibitory concentration (MIC) (as a rule, the lowest concentration found to suppress growth) in test [12] stood at 62.5 µg/mL (≈ 182 µM).
Regarding `O=[N+]([O-])c1cccc(C2c3ccc4ccccc4c3Oc3[nH]c(=S)n4nnnc4c32)c1` (centres undefined), the MIC in test [13] and in [14] was 50 to 400 µg/mL (≈ 117 to 934 µM) throughout.
As for `Cc1cc2oc(-c3ccc(F)cc3)c(OCc3nnn[nH]3)c(=O)c2cc1Cl`, the MIC in [15] lay within 12.5 to 50 µg/mL (≈ 32.3 to 129 µM); in test [17], 12.5 to 50 µg/mL (≈ 32.3 to 129 µM); in test [18], 12.5 to 25 µg/mL (≈ 32.3 to 64.6 µM). In addition, the Ratio in [16] and in [19] was 16 - 64 throughout.
On to `Fc1ccc(C2c3ccc4ccccc4c3Oc3[nH]c(=S)n4nnnc4c32)cc1` (centres undefined), for which the MIC in test [13] and in [14] was 50 to 400 µg/mL (≈ 125 to 996 µM) each time.
Regarding `O=C(O)c1cn(C2CC2)c2nc(N3CCN(CC(=O)c4nnnn4-c4ccccc4)CC3)c(F)cc2c1=O`, the MIC in test [3], in test [4], in [5], in test [6] and in test [7] was 6.25 to 100 µg/mL (≈ 12.1 to 193 µM) each time.
For the compound `CNCCSc1nc2ccccc2c2nnnn12`, the zone of inhibition at 100 µg/mL in [20] fell in the range of 6 to 22 mm.
The same measure, in the same setting: the result for `O=C(CSc1nc2ccccc2c2nnnn12)c1ccccc1` reads 6 to 22 mm.
As for `CC(=O)N1N=C(Cn2cc(-c3nn(-c4ccncc4)cc3-c3nnnn3-c3ccc(C(F)(F)F)cc3)c3cc(Cl)ccc32)OC1(C)c1ccc(C(F)(F)F)cc1` (centres undefined), the zone of inhibition at 500 µg/mL in [1] and in test [2] was 11 to 20 mm each time.
As for `O=[N+]([O-])c1ccc(OCc2cn(Cc3ccc(-c4ccccc4-c4nnn[nH]4)cc3)nn2)cc1`, the zone of inhibition at 25 µg/mL in [8], in test [9], in [10] and in [11] was 11 to 18 mm throughout.
For `Cc1ccc(C2c3ccc4ccccc4c3Oc3[nH]c(=S)n4nnnc4c32)cc1` (centres undefined), the MIC in [13] and in [14] was 50 to 400 µg/mL (≈ 126 to 1010 µM) each time.
`O=C(O)c1cn(C2CC2)c2nc(N3CCN(CC(=O)c4nnnn4-c4ccc(F)cc4)CC3)c(F)cc2c1=O`: the MIC in test [3] is 6.25 to 100 µg/mL (≈ 11.6 to 186 µM); in test [4], 6.25 to 100 µg/mL (≈ 11.6 to 186 µM); in [5], 6.25 to 100 µg/mL (≈ 11.6 to 186 µM); in test [6], 6.25 to 100 µg/mL (≈ 11.6 to 186 µM); in test [7], 6.25 µg/mL (≈ 11.6 µM).
Consider `O=C(O)c1cn(C2CC2)c2nc(N3CCN(CC(=O)c4nnnn4-c4ccc([N+](=O)[O-])cc4)CC3)c(F)cc2c1=O`, for which the minimum inhibitory concentration (MIC) in [3] was 6.25 to 100 µg/mL (≈ 11.1 to 177 µM); in test [4], 6.25 to 100 µg/mL (≈ 11.1 to 177 µM); in test [5] it was 6.25 to 100 µg/mL (≈ 11.1 to 177 µM); in [6] it was 6.25 to 100 µg/mL (≈ 11.1 to 177 µM); in test [7] it was 6.25 µg/mL (≈ 11.1 µM).
With `Cc1ccc(OCc2cn(Cc3ccc(-c4ccccc4-c4nnn[nH]4)cc3)nn2)cc1`, the zone of inhibition at 25 µg/mL in [8], in test [9], in [10] and in test [11] was 11 to 18 mm in each case.
As for `CC(C)NCCSc1nc2ccccc2c2nnnn12`, the zone of inhibition at 100 µg/mL in test [20] lay within 6 to 22 mm.
Still for that read-out and setting: then `NCCSc1nc2ccccc2c2nnnn12`, with 6 to 22 mm.
Turning to `CC(=O)N1N=C(Cn2cc(-c3nn(-c4ccncc4)cc3-c3nnnn3-c3ccc(C(F)(F)F)cc3)c3cc(Cl)ccc32)OC1(C)c1ccc(Cl)cc1` (centres undefined), the zone of inhibition at 500 µg/mL in test [1] and in test [2] was 11 to 20 mm in each case.
